Patent US9580433B2 (Janssen Pharmaceutica NV, priority 2013, dated 2017)
Like-named read-outs stand apart in the source and are kept apart here.

Experiments:
BACE1 = molecular target: T1, BACE1 (Homo sapiens, UniProt P56817); assay: BACE1 biochemical FRET based assay
T1 construct: recombinant BACE1 protein in a final concentration of 0.04 g/ml

[1] = system: Abeta 1-42 produced and secreted by SKNBE2 cells (BACE1); assay: BACE1 cellular αLisa assay in SKNBE2 cells, Abeta 1-42; format: cell-based, human; conditions: SKNBE2 cells expressing hAPP695, 18 hours incubation; for IC50: Homo sapiens, SKNBE2, 18 h, read-out: Cellular αLisa assay in SKNBE2 cells Abeta 42 pIC50 (converted)
Method: (§1) BACE1 Cellular αLisa Assay in SKNBE2 Cells
(§2) In two αLisa assays the levels of Abeta total and Abeta 1-42 produced and secreted into the medium of human neuroblastoma SKNBE2 cells are quantified. The assay is based on the human neuroblastoma SKNBE2 expressing the wild type Amyloid Precursor Protein (hAPP695). The compounds are diluted and added to these cells, incubated for 18 hours and then measurements of Abeta 1-42 and Abeta total are taken. Abeta total and Abeta 1-42 are measured by sandwich αLisa. αLisa is a sandwich assay using biotinylated antibody AbN/25 attached to streptavidin coated beads and antibody Ab4G8 or cAb42/26 conjugated acceptor beads for the detection of Abeta total and Abeta 1-42 respectively. In the presence of Abeta total or Abeta 1-42, the beads come into close proximity. The excitation of the donor beads provokes the release of singlet oxygen molecules that trigger a cascade of energy transfer in the acceptor beads, resulting in light emission. Light emission is measured after 1 hour incubation (excitation at […] and emission at 615 nm).
(§3) A best-fit curve is fitted by a minimum sum of squares method to the plot of % Controlmin versus compound concentration.

[2] = system: Abeta total produced and secreted by SKNBE2 cells (BACE1); assay: BACE1 cellular αLisa assay in SKNBE2 cells, Abeta total; format: cell-based, human; conditions: SKNBE2 cells expressing hAPP695, 18 hours incubation; for IC50: Homo sapiens, SKNBE2, 18 h, read-out: Cellular αLisa assay in SKNBE2 cells Abetatotal pIC50 (converted)
Method: as §1, §2, §3

BACE2 = molecular target: T2, BACE2 (Homo sapiens, UniProt Q9Y5Z0); assay: BACE2 biochemical FRET based assay; conditions: recombinant BACE2, 450 min, pH 5.0; read-out: BACE2 Biochemical FRET based assay pIC50 (converted)
T2 construct: recombinant BACE2 protein in a final concentration of 0.4 μg/ml
T2 sequence (Q9Y5Z0 63-518): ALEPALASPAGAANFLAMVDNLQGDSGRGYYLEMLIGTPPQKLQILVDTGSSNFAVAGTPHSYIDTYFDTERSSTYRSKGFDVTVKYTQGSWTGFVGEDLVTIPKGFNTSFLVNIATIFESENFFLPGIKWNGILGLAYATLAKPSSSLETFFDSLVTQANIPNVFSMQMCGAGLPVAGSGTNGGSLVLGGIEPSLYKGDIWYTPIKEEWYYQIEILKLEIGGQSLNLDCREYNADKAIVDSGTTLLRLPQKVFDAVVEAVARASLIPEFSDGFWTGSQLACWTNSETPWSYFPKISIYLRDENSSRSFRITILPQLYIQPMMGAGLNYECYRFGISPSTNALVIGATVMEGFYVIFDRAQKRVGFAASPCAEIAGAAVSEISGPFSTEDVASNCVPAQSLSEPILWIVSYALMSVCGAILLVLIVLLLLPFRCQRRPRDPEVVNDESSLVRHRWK

[3] = recombinant BACE1, 450 min, pH 5.0, read-out: BACE1 Biochemical FRET based assay pIC50 (converted)
[4] = Table 10, comparison with WO2012/085038 compounds, read-out: IC50 (nM), BACE1 biochemical FRET based assay

T1 sequence (P56817 46-501): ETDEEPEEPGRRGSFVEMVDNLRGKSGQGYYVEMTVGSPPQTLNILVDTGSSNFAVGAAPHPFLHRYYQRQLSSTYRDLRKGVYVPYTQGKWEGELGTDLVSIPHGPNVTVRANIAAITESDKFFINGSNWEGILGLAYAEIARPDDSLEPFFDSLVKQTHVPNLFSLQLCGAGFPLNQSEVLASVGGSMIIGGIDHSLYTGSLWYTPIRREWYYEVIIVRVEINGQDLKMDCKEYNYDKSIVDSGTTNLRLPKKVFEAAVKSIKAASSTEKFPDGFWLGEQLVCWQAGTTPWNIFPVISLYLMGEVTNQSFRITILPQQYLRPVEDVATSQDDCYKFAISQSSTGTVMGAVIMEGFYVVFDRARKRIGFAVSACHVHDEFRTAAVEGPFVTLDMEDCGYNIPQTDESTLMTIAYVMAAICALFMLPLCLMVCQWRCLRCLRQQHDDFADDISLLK

IC50 (BACE1; [3])	IC50 [1]	IC50 [2]	IC50 (BACE2)	IC50 (BACE1; [4])	Cellular αLisa assay in SKNBE2 cells Abeta 42 pIC50 [1]	Cellular αLisa assay in SKNBE2 cells Abetatotal pIC50 [2]	Structure (SMILES)
4.9 nM	3.31 nM	2.75 nM	55 nM				COc1cnc(C(=O)Nc2ccc(F)c([C@]3(C)Cn4cncc4C(N)=N3)c2)cn1 [Compound 1, N-{3-[(6R)-8-Amino-6-methyl-5,6-dihydroimidazo[1,5-a]pyrazin-6-yl]-4-fluorophenyl}-5-methoxypyrazine-2-carboxamide]
708 nM	245 nM	229 nM	7240 nM				C[C@@]1(c2cc(-c3cncnc3)ccc2F)Cn2cncc2C(N)=N1 [Compound 2, (6R)-6-(2-Fluoro-5-pyrimidin-5-ylphenyl)-6-methyl-5,6-dihydroimidazo[1,5-a]pyrazin-8-amine]
> 10000 nM	> 10000 nM	> 10000 nM					Cc1ncn2c1C(N)=N[C@](C)(c1cc(-c3cncnc3)ccc1F)C2 [Compound 6, (6R)-6-(2-Fluoro-5-pyrimidin-5-ylphenyl)-1,6-dimethyl-5,6-dihydroimidazo[1,5-a]pyrazin-8-amine]
				18.6 nM			C[C@@]1(c2cc(NC(=O)c3ccc(Cl)cn3)ccc2F)Cn2c(C(F)F)cnc2C(N)=N1 [74 (WO2012/085038), reference compound]
3.16 nM	2.95 nM	2.34 nM	4.07 nM	3.16 nM			C[C@@]1(c2cc(NC(=O)c3ccc(Cl)cn3)ccc2F)Cn2cncc2C(N)=N1 [Compound 3, N-{3-[(6R)-8-amino-6-methyl-5,6-dihydroimidazo[1,5-a]pyrazin-6-yl]-4-fluorophenyl}-5-chloropyridine-2-carboxamide]
				83.2 nM			COc1cnc(C(=O)Nc2ccc(F)c([C@]3(C)Cn4c(C(F)F)cnc4C(N)=N3)c2)cn1 [76 (WO2012/085038), reference compound]
3.8 nM	0.813 nM	0.851 nM	24 nM	3.8 nM			COc1cnc(C(=O)Nc2ccc(F)c([C@]3(C)Cn4c(cnc4C(F)F)C(N)=N3)c2)cn1 [Compound 12, N-{3-[(6R)-8-amino-3-(difluoromethyl)-6-methyl-5,6-dihydroimidazo[1,5-a]pyrazin-6-yl]-4-fluoropheny}-5-methoxypyrazine-2-carboxamide]
1.45 nM	2 nM	2.24 nM	2.14 nM				C[C@@]1(c2cc(NC(=O)c3ccc(C#N)cn3)ccc2F)Cn2c(cnc2C#N)C(N)=N1 [Compound 9, N-{3-[(6R)-8-Amino-3-cyano-6-methyl-5,6-dihydroimidazo[1,5-a]pyrazin-6-yl]-4-fluorophenyl}-5-cyanopyridine-2-carboxamide]
22.4 nM	19.1 nM	17.4 nM	12.6 nM				C[C@@]1(c2cc(NC(=O)c3ccc(F)cn3)ccc2F)Cn2cncc2C(N)=N1 [Compound 8, N-{3-[(6R)-8-amino-6-methyl-5,6-dihydroimidazo[1,5-a]pyrazin-6-yl]-4-fluorophenyl}-5-fluoropyridine-2-carboxamide]
				13.8 nM			C[C@@]1(c2cc(NC(=O)c3ccc(C#N)cn3)ccc2F)Cn2c(C(F)F)cnc2C(N)=N1 [75 (WO2012/085038), reference compound]
3.98 nM	6.17 nM	5.5 nM	8.13 nM				Cc1cc(C#N)cnc1C(=O)Nc1ccc(F)c([C@]2(C)Cn3cncc3C(N)=N2)c1 [Compound 7, N-{3-[(6R)-8-amino-6-methyl-5H-imidazo[1,5-a]pyrazin-6-yl]-4-fluoro-phenyl}-5-cyano-3-methyl-pyridine-2-carboxamide]

Further lines, the compound ahead of its results:

Structure (SMILES)	IC50 (BACE1; [3])	IC50 [1]	IC50 [2]	IC50 (BACE2)	IC50 (BACE1; [4])	Cellular αLisa assay in SKNBE2 cells Abeta 42 pIC50 [1]	Cellular αLisa assay in SKNBE2 cells Abetatotal pIC50 [2]
C[C@@]1(c2cc(NC(=O)c3ccc(C#N)cn3)ccc2F)Cn2c(cnc2CC2CC2)C(N)=N1 [Compound 16, N-{3-[(6R)-8-Amino-3-(cyclopropylmethyl)-6-methyl-5,6-dihydroimidazo[1,5-a]pyrazin-6-yl]-4-fluorophenyl}-5-cyanopyridine-2-carboxamide]	1.38 nM	1.91 nM	2.14 nM	9.55 nM			
CC(=O)NCc1ncc2n1C[C@@](C)(c1cc(NC(=O)c3ccc(C#N)cn3)ccc1F)N=C2N [Compound 17, N-(3-{(6R)-3-[(Acetylamino)methyl]-8-amino-6-methyl-5,6-dihydroimidazo[1,5-a]pyrazin-6-yl}-4-fluorophenyl)-5-cyanopyridine-2-carboxamide]	1.86 nM	4.79 nM	5.25 nM				
COc1cnc(C(=O)Nc2ccc(F)c(C3(CF)Cn4cncc4C(N)=N3)c2)cn1 (racemic) [Compound 13, (rac)-N-{3-[8-Amino-6-(fluoromethyl)-5,6-dihydroimidazo[1,5-a]pyrazin-6-yl]-4-fluorophenyl}-5-methoxypyrazine-2-carboxamide]	8.32 nM	3.63 nM	3.63 nM	93.3 nM			
C[C@@]1(c2cc(NC(=O)c3ccc(Cl)cn3)ccc2F)Cn2c(cnc2C(F)F)C(N)=N1 [Compound 11, N-{3-[(6R)-8-amino-3-(difluoromethyl)-6-methyl-5,6-dihydroimidazo[1,5-a]pyrazin-6-yl]-4-fluoropheny}-5-chloropyridine-2-carboxamide]	3.16 nM	0.575 nM	0.631 nM	2.75 nM	3.16 nM		
C[C@@]1(c2cc(NC(=O)c3ccc(C#N)cn3)ccc2F)Cn2c(cnc2C(F)F)C(N)=N1 [Compound 10, N-{3-[(6R)-8-amino-3-(difluoromethyl)-6-methyl-5,6-dihydroimidazo[1,5-a]pyrazin-6-yl]-4-fluorophenyl}-5-cyanopyridine-2-carboxamide]	3.47 nM	0.955 nM	1.07 nM	15.8 nM	3.47 nM		
COc1cnc(C(=O)Nc2ccc(F)c(C3(CF)Cn4cncc4C(N)=N3)c2)cn1 (single isomer, unassigned) [Compound 15, N-{3-[8-amino-6-(fluoromethyl)-5,6-dihydroimidazo[1,5-a]pyrazin-6-yl]-4-fluorophenyl}-5-methoxypyrazine-2-carboxamide (S or R)]	2.24 nM			37.2 nM		8.74	8.74
COc1cnc(C(=O)Nc2ccc(F)c(C3(CF)Cn4cncc4C(N)=N3)c2)cn1 (single isomer, unassigned) [Compound 14, N-{3-[8-amino-6-(fluoromethyl)-5,6-dihydroimidazo[1,5-a]pyrazin-6-yl]-4-fluorophenyl}-5-methoxypyrazine-2-carboxamide (R or S)]	933 nM			5370 nM		6.07	6.06
